Where two headings read alike, the source gives them in different places.
Assays:
[1] = tested on: HL60 myeloid leukemia cell line; test: MTT cytotoxicity, HL60; type: cell-based, human; conditions: HL60, three days, read-out: EC50 (50% reduction in cell viability)
Description: (§1) The cytotoxic activity of various phospho-derivatives of branched-chain fatty acids (DP-BFAs) was assayed in vitro in cell cultures that include normal and malignant cell types. The following cell systems were used: • Primary fibroblasts (human) • Normal bone marrow (BM) cells (mouse) • Primary bronchial epithelial cells (human, from Clonetics, cat. no. CC-2541) • Caco-2—colon cancer cell line (human, ATTC, HTB-37) • C6 glioma cell line (rat, ATCC, CRL-2199) • Neuro2a—neuroblastoma cell line (mouse, ATCC, CCL-131) • SKBR-3—breast cancer cell line (human, ATTC, HTB-30) • HL60—myeloid leukemia cell line (human, ATCC, CCL-240) • U937—myeloid leukemia cell line (human)
(§2) Cells were seeded in a microtiter plate in MEM containing 2 mM L-glutamine, 100 units/ml penicillin, 100 ug/ml streptomycin and 10% FCS at 37° C. The cultured cells were incubated, during their linear growth phase in the absence (control group) or presence of various DP-BFAs as indicated. The final concentrations of the tested DP-BFAs ranged from 1.5 to 200 microMolars. At the end of the incubation period, which was five days for the bone marrow cells and three days for all the other cell lines, the cytotoxic effect of the added P-BFA on the cells was estimated by using the colorimetric MTT assay. The MTT assay (Mosmann (1983) J. Immunol Methods 65: 55–63) measures mitochondrial reductase activity and serves for quantitative assessment of cellular viability. Drug concentration that causes 50% reduction in cell viability in comparison to the control group, is defined as EC50. The EC50 values of the tested DP-BFA compounds were calculated from dose response curves established for each of the different assayed cell lines.
(§3) Each EC50 value is an average of EC50 values derived from 1–5 independent experiments.

[2] = tested on: U937 myeloid leukemia cell line; test: MTT cytotoxicity, U937; type: cell-based, human; conditions: U937, three days, read-out: EC50 (50% reduction in cell viability)
Description: as §1, §2, §3

[3] = tested on: Normal bone marrow (BM) cells; test: MTT cytotoxicity, normal bone marrow cells; type: cell-based, mouse; conditions: five days, read-out: EC50 (50% reduction in cell viability)
Description: as §1, §2, §3

[4] = tested on: Primary bronchial epithelial cells; test: MTT cytotoxicity, normal primary epithelial cells; type: cell-based, human; conditions: Normal primary epithel, three days, read-out: EC50 (50% reduction in cell viability)
Description: as §1, §2, §3

[5] = tested on: Caco-2 colon cancer cell line; test: MTT cytotoxicity, Caco-2; type: cell-based, human; conditions: Caco-2, three days, read-out: EC50 (50% reduction in cell viability)
Description: as §1, §2, §3

[6] = tested on: Neuro2a neuroblastoma cell line; test: MTT cytotoxicity, Neuro2a; type: cell-based, mouse; conditions: three days, read-out: EC50 (50% reduction in cell viability)
Description: as §1, §2, §3

[7] = tested on: SKBR-3 breast cancer cell line; test: MTT cytotoxicity, SKBR-3; type: cell-based, human; conditions: three days, read-out: EC50 (50% reduction in cell viability)
Description: as §1, §2, §3

[8] = tested on: blood brain barrier (BBB); test: BBB permeabilization in rats, Evans blue extravasation into brain; type: in vivo, Sprague-Dawley rats; conditions: for MEC (minimal effective concentration): concentration giving 3 μg EB/g brain
Source text: Permeabilization of the BBB by DP-BFA was investigated in rat model system by monitoring accumulation in the brain of two markers: a) Evans blue dye (EB), which rapidly binds in vivo with albumin (NW 70 kD) and is an indicator for paracellular transport; and b) Fluorescein sodium salt (F—Na), MW 376 D, which is transported via the cellular space, and enables monitoring transcellular transport. Upon BBB disruption the Evans blue-albumin complex irreversibly accumulates in the intercellular space of the brain. The much smaller tracer fluorescein may be transported intracellularly to occupy both inter and intracellular space in the brain.
Blood brain barrier permeabilization in Sprague-Dawley rats was induced by brief exposure to DP-BFA. The animals were anesthetized with Rampun-Imalgen and DP-BFA test compounds were administered via the external carotid artery retrograde to the brain (Smith, Q. R. Methods of study. In: Physiology and Pharmacology of the Blood-Brain Barrier. Ed. Bradbury M. W. B. Spinger-Verlag. Berlin-Heidelberg-NY; 1992: 24–52). The pterygo-palathina artery was ligated to avoid escape of infused solutions towards the external head vasculature. DP-BFA solutions were infused over a period of 30 seconds or half an hour, using a Harvard Apparatus Syringe Pump. Blood flow through carotid communis artery was interrupted only at the time of infusion.
All tested DP-BFA molecules were prepared from stock solutions in either water or ethanol by diluting 200–1000 fold into solution of isosmotic mannitol (5%) in Tromethamine buffer (Sigma) or PBS (pH 7.4)
The markers, Evans blue (EB, 25 mg/ml) and fluorescein (F—Na, 12.5 mg/ml), in 1 ml solution, were injected intravenously immediately following administration of the tested DP-BFA, or after a specific time interval if reversibility of action was investigated. Supportive i.v. infusion of F—Na (12.5 mg/ml–100 μl/min) was performed for 8 minutes. Brains were washed with saline solution (60 ml) 10 min after the intracarotid “flash”. Brain ipsilateral and contralateral hemispheres and tumors, where applicable, were homogenized separately with 50% trichloroacetic acid (TCA). The markers concentrations in the cortex and in tumors, where, applicable, were determined spectrofluorometrically (Uyama, O. et al., (1988) J. Cereb. Blood Flow Metab. 8, 282–284: Abraham et al., (1996) Neurosci. Lett. 208, 85–88). The markers content was calculated as μg marker per one-gram brain tissue. Standard error and Student's test for statistical significance were used.
The experiment was carried out on male Sprague-Dawley rats weighing 250–320 g. The procedure described above in Example 17 was followed.
The effect of the tested compounds on the BBB opening was evaluated by two parameters:
a) efficacy—The degree of BBB opening estimated in terms of accumulation of Evans Blue albumin (μg EB/g brain tissue); and
b) potency—measured in terms of EC50 and minimal effective concentration (MEC) values. EC50 is the concentration of a tested compound producing 50% of the maximal effect of Evans Blue extravasation.
The effect of various DP-BFAs on BBB permeability was tested in the model system of rat brains, as described above in Example 17. Efficacy, namely the level of the BBB opening was expressed as the amount of Evans blue accumulated in the brain (μg EB/g brain). Potency of the tested molecules was estimated by their calculated EC50 and minimal effective concentration (MEC) values.

[9] = tested on: blood brain barrier (BBB); test: BBB permeability to EB-albumin and Fluorescein in normal rat brains; type: in vivo; conditions: compounds at EC50 (Mannitol 25%); for % EB/g brain: control 0.04 ± 0.01; for Brain fluorescein uptake (% of serum F-Na level): control 0.3 ± 0.08; for Ratio F-Na/EB (mean of individual ratios): control 9.5 ± 1.6
Source text: The effect of various DP-BFAs on BBB permeabilization to molecules of different sizes was examined in vivo in the model system of normal rat brains.
The transport of two markers was followed: a) Evans blue bound to albumin (MW 70 kD) as an indicator for paracellular transport; and b) Fluorescein sodium salt (MW 376 D) that represents small size molecules.
The Evans blue dye (EB) and Fluorescein sodium salt (F—Na) were infused into the artery carotis externa over 30 seconds according to the protocol described above in Example 17. The test compounds were used at their EC50 concentrations. Control animals were treated with vehicle solution.
Evans blue extravasation is expressed as the percentage of the total amount of EB accumulated per one gram of brain tissue. The transport of fluorescein into the brain, which is dependent on the serum concentration of this molecule, is presented as percentage of the F—Na level in the serum.

[10] = tested on: Chinese hamster ovary (CHO) AA8 cell line; test: LDH release toxicity assay in cultured CHO AA8 cells; type: cell-based; conditions: 1 hour incubation, read-out: LC50 (the source's name)
Description: Various DP-BFA molecules were screened in cultured Chinese hamster ovary (CHO) AA8 cell line in order to establish their toxicity. LC50 values, i.e. the concentrations causing death in 50% of cell population, were calculated from dose response curves. LC50 values of phospho-BFAs were compared to those of the corresponding branched fatty acids (=carbo-BFAs).
Lactate dehydrogenase (LDH) release was used as an assay for the integrity of the cells membrane and, thus, for estimation of toxicity. Cells (2×10^5/ml) were seeded (150 μl/well) in 96 well plates, in RPMI-1640 medium containing 10% FCS. After two days, tested DP-BFA compounds or the control compound myristic acid were added to the plates in declining concentrations ranging from 500 to 1 μg/ml. Cells were harvested after one hour. […] Other controls included, two blank wells and five wells containing cells with no additional drugs. Following centrifugation (1500 rpm, 5 min), 75 μl of the supernatant was transferred to a new plate with 45 μl of an LDH assay mix (Tox-7 kit, Sigma). After 10–20 minutes at room temperature, absorbance was measured using an Elisa Reader 490 nm.
Each experiment was performed in triplicate.

[11] = type: in vivo; conditions: rats, sodium salt
Description: DP-BFA molecules were evaluated for safety and toxicity. Increasing doses of the tested compounds were administered intra-arterially (i.a.) into rats following the protocol described above in Example 17. Animal viability was monitored for 24 hours to evaluate lethal concentrations (LC). LC is defined as the minimal concentration that caused death.
Safety index is defined as the ratio between the lethal dose (LC) and the minimal effective concentration (MEC), wherein MEC corresponds to a calculated concentration of the tested compound that elicits accumulation of three times the amount of Evans blue accumulated in control animals treated with vehicle only, i.e. total accumulation of 3 μg EB. The higher the LC/MEC ratio is, the higher the safety index.

[12] = Octanol/saline solubility and partition coefficient, shake-flask technique
Description: The lipophilicity values of various derivatives of branched fatty acids were estimated by comparing the solubility of these compounds in organic versus aqueous solutions. Octanol and physiological saline were used, respectively, as the organic and aqueous solutions. The partition coefficient (Pc) value, i.e. the octanol/saline distribution was measured by the shake-flask technique.

[13] = Table 6, rat brains, Evans blue extravasation, read-out: EQ50 (the source's name)

Row | Compound | EC50 [2] [µM] | EC50 [5] [µM] | EC50 [6] [µM] | EC50 [7] [µM] | MEC (minimal effective concentration) ([8]; Table 6) [µM] | EC50 [8, 13] [µM] | % EB/g brain [9] [%] | Brain fluorescein uptake (% of serum F-Na level) [9] | Ratio F-Na/EB (mean of individual ratios) [9] | CC50 [10] [µM] | further results
1 | 4-Octadecanyl phosphocholine [3,14-PC] | 4 | – | – | – | – | – | – | – | – | – | EC50 [1]: 7 µM; EC50 [3]: 160 µM; EC50 [4]: 72 µM
2 | CCCCCCCCCCCCC(CCC)C(=O)OCCOP(=O)([O-])[O-].[Na+].[Na+] (centres unmarked) [3,12-MEG-PO4Na2, 2-(2′-Propyltetradecanoyloxy)ethyl Disodium Phosphate] | 75 | > 200 | 60 | > 200 | 11 ± 2 | 18 ± 3 | 0.8 ± 0.1 | 5.0 ± 0.8 % of the F—Na level in the ser | 8.4 ± 0.9 | – | μg EB/g brain (at EC50) ([8]; Table 6, at EC50 (Mannitol at 25%)): 5 ± 1 μg EB/g brain
3 | CCCCCCCCCCCCC(CCC)OP(=O)([O-])[O-].[Na+].[Na+] (centres unmarked) [3,12-PO4Na2, 4-Hexadecanyl Disodium Phosphate] | 90 | > 200 | 105 | > 200 | 3.3 ± 0.5 | 55 ± 1 | 2.9 ± 0.6 | 8.2 ± 0.9 % of the F—Na level in the ser | 5.9 ± 1.0 | 320 | μg EB/g brain (at EC50) ([8]; Table 6, at EC50 (Mannitol at 25%), listed as 3,12-PO4-Na2): 20 ± 3 μg EB/g brain; μg EB/g brain (at EC50) ([8]; Table 6, at EC50 (Mannitol at 25%), listed as 3,12-PO4—Na2): 20 μg EB/g brain
4 | CCCCCCCCCCCCCCCCCCC(CCC)C(=O)OCCOCCOP(=O)([O-])OCC[N+](C)(C)C (centres unmarked) [3,18-DEG-PC, 2-(2′-Propyleicosanoyloxy)ethoxyethylphosphocholine] | – | – | – | – | – | – | – | – | – | – | EC50 ([1]; Homo sapiens, HL-60, 72 h): 13 µM; EC50 ([2]; Homo sapiens, U-937, 72 h): 6 µM; EC50 ([3]; Mus musculus, Bone marrow cell, 120 h): 80 µM; EC50 ([4]; Homo sapiens, Primary bronchial epithelial cell, 72 h): 60 µM
5 | CCCCCCCC(CCCCCCC)C(=O)[O-].[Na+] [7,7-Na, reference compound] | – | – | – | – | – | – | – | – | – | 65 | μg EB/g brain (at EC50) ([8]; Table 5, at EC50): 4.2 ± 0.6 μg EB/g brain; MEC (minimal effective concentration) ([8]; Table 5): 132 ± 19; EC50 ([8]; Table 5, rat brain, intracarotid infusion, read-out: EC50 (Evans Blue extravasation)): 184 ± 21 µM; MEC ([8]; Table 8, sodium salt, in µM): 132 ± 19; LC (minimal concentration that caused death) ([11]; i.a., viability monitored 24 hours): 360 ± 67 µM; Safety LC/MEC [11]: 2.7; LogPc (octanol-saline partition coefficient) ([12]; octanol/physiological saline, sodium salts): 1.33; Water mg/ml (solubility in aqueous solution) ([12]; physiological saline as aqueous solution, sodium salts): >25 mg/mL; Octanol mg/ml (solubility in octanol) ([12]; sodium salts of the branched fatty acids and their PO4 derivatives): >50 mg/mL
6 | CCCCCCCC(CCCCCCC)OP(=O)(O)O [7,7-PO4Na2, 8-Pentadecanyl Disodium Phosphate] | – | – | – | – | – | – | – | – | – | 320 | –

Source: US7186703B2, “Derivatives of branched-chain lipophilic molecules and uses thereof” (D-Pharm Ltd., priority 2000, dated 2007)
